Test results reported in publication PMC5286435, “Honeybee locomotion is impaired by Am-CaV3 low voltage-activated Ca^2+ channel antagonist” (Scientific Reports, 2017).

Key:
Am-CaV3 [1] = molecular target: T1, Am-CaV3 (Apis mellifera, UniProt A0ACM8RFK5); assay: two-electrode voltage clamp in Xenopus oocytes, Ba2+ current block; assay type: cell-based
T1 construct: gene LOC551883; full channel alpha1 subunit cloned from honeybee, mRNA injected in Xenopus oocytes, without CaVbeta; N-terminal region peptide CFDVPSSDGPSDPS (antibody antigen)
T1 sequence (A0ACM8RFK5 1-2566): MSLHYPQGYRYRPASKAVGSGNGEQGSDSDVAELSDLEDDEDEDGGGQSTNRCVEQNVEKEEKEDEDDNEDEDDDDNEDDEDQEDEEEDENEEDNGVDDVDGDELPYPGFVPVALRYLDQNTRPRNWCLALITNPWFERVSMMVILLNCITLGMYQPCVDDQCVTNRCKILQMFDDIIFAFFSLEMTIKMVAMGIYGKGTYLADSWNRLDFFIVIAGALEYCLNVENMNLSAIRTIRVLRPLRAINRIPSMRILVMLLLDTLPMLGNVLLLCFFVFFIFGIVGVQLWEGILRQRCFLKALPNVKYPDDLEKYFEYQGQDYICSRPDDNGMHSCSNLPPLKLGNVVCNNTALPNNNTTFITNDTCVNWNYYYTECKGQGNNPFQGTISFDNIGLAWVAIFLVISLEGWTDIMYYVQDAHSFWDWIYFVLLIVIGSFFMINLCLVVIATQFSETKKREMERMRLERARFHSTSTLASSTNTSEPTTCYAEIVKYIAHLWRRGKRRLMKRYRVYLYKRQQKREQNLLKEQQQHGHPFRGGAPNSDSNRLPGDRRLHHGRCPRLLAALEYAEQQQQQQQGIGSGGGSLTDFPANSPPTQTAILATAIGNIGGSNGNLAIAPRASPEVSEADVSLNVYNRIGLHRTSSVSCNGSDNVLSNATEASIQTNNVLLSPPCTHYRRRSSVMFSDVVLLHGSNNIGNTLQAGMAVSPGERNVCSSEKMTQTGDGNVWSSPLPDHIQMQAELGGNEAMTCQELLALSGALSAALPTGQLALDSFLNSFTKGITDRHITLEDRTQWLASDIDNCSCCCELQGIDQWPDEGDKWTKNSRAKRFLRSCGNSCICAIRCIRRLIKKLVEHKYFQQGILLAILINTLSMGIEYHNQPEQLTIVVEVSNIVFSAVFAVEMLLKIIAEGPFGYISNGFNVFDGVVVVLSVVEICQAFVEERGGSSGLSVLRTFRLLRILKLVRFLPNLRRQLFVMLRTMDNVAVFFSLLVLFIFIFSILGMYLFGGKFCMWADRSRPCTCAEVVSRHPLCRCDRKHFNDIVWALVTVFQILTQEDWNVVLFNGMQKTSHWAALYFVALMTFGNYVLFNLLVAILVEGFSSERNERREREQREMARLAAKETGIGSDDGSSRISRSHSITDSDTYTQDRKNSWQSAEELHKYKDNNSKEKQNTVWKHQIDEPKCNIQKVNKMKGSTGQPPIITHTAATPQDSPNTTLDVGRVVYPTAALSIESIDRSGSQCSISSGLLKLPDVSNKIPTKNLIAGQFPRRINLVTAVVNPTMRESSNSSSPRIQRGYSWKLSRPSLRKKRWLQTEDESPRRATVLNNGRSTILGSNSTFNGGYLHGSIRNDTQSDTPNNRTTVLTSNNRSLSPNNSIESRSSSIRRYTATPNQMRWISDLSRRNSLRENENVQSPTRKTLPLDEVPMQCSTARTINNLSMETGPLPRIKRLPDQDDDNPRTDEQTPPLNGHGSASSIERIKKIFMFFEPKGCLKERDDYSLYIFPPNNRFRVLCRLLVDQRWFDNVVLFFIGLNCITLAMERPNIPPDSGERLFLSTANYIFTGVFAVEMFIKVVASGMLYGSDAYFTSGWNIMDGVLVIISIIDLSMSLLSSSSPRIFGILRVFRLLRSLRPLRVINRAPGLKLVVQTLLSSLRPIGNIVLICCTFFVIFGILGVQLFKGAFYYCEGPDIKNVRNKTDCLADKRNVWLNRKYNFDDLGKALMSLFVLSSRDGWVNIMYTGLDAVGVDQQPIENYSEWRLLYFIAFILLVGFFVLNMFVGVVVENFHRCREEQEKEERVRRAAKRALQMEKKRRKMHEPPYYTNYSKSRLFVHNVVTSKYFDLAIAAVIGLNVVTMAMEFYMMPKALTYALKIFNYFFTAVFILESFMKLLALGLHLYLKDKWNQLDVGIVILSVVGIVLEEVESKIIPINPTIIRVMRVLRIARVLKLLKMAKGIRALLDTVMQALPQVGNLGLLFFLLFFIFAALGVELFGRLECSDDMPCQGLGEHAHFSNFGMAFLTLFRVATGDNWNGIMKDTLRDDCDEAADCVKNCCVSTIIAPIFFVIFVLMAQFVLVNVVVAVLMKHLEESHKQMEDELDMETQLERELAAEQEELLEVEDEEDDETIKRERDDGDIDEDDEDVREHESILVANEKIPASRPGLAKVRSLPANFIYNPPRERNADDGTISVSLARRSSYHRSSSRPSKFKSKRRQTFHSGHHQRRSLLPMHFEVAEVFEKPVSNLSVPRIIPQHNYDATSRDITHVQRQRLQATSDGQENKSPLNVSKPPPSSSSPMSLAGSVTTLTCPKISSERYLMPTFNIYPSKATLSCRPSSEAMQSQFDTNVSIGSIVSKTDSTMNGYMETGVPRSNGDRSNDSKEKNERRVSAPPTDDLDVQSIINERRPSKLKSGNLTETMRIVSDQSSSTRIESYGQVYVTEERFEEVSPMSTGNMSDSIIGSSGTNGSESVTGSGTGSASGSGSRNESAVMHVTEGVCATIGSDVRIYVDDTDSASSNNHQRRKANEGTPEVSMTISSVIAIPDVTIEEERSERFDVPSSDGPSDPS

Am-CaV3 [2] = molecular target: T1, Am-CaV3; assay: as above; assay type: cell-based; settings: inhibition (blocker), 10 mM Ba2+, reversible, code printed NNC55-0398 in text, NNC 55-0396 in Figure 1 legend

EC50 (Am-CaV3 [1])	Structure (SMILES)	residual current at 10 μM (Am-CaV3 [2])
3.5 µM	COCC(=O)O[C@]1(CCN(C)CCCc2nc3ccccc3[nH]2)CCc2cc(F)ccc2[C@@H]1C(C)C [Mi, mibefradil]	–
–	CC(C)[C@H]1c2ccc(F)cc2CC[C@@]1(CCN(C)CCCc1nc2ccccc2[nH]1)OC(=O)C1CC1 [NN, NNC 55-0396]	The mibefradil analogue NNC55-0398 (NN) also had a similar potency
